{"source": "patent US12692249B2", "about": "“WDR5 inhibitors and modulators” (Vanderbilt University, priority 2019, dated 2026)", "key": {"WDR5": {"target": "WDR5 (Homo sapiens, UniProt P61964)", "assay": "TR-FRET competition binding assay, displacement of 10mer-Thr-FAM MLL peptide probe from His-tagged WDR5", "conditions": "WDR5-His tag (residues 24-334) 2 nM; 10mer-Thr-FAM 150 nM; 60 min, room temperature; read-out: Ki for Inhibition of WDR5 by TR-FRET assay"}, "[1]": {"system": "MV4:11 human cancer cell lines", "assay": "Cellular viability / anti-proliferative assay, CellTiter-Glo, 5 day protocol", "type": "cell-based", "conditions": "Homo sapiens, MV4-11, 120 h, MV4:11 cells; 5 day incubation; CellTiter-Glo; mean of at least two replicates; read-out: GI50 on cellular proliferation of MV4:11 human cancer cell lines", "procedure,_shortened": "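Luminescent ATP-based viability (CellTiter-Glo) after a 5-day exposure gave GI50 via sigmoidal fitting, averaged over two or more replicates. Compounds spanned 22 two-fold steps down from 30 μM at 0.3% DMSO, on 200 MV-4-11 cells per well grown in IMDM plus 10% FBS.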"}}}
{"smiles": "COc1ccc(N2CCc3c(cc(Cn4ccnc4C)cc3-c3cn(C)nc3C(F)(F)F)C2=O)c2cc(C)cnc12", "note": "[Example 11, 2-(8-Methoxy-3-methylquinolin-5-yl)-7-((2-methyl-1H-imidazol-1-yl)methyl)-5-(1-methyl-3-(trifluoromethyl)-1H-pyrazol-4-yl)-3,4-dihydroisoquinolin-1(2H)-one]", "values": [{"measurement": "Ki", "setting": "WDR5", "value": 0.035, "unit": "nM"}, {"measurement": "GI50", "setting": "[1]", "value": 3890, "unit": "nM"}]}
{"smiles": "Cc1cc2c(N3CCc4c(cc(Cn5ccnc5)cc4-c4cn(C)nc4C(F)(F)F)C3=O)cccc2nc1C", "note": "[Example 108, 7-((1H-imidazol-1-yl)methy)-2-(2,3-dimethylquinolin-5-yl)-5-(1-methyl-3-(trifluoromethyl)-1H-pyrazol-4-yl)-3,4-dihydroisoquinolin-1(2H)-one]", "values": [{"measurement": "Ki", "setting": "WDR5", "value": 0.042, "unit": "nM"}, {"measurement": "GI50", "setting": "[1]", "value": 40, "unit": "nM"}]}
{"smiles": "Cc1ccc2cncc(N3CCc4c(cc(C(O)c5cn(C)cn5)cc4-c4cn(C)nc4C(F)(F)F)C3=O)c2c1", "note": "(stereo not shown) [Example 57, 7-(Hydroxy(1-methyl-1H-imidazol-4-yl)methyl)-6′-methyl-5-(1-methyl-3-(trifluoromethyl)-1H-pyrazol-4-yl)-3,4-dihydro-1H-[2,4′-biisoquinolin]-1-one]", "values": [{"measurement": "Ki", "setting": "WDR5", "value": 27, "unit": "nM"}, {"measurement": "GI50", "setting": "[1]", "value": 29000, "unit": "nM"}]}
{"smiles": "CCc1cc(OC)c2nccc(N3CCc4c(cc(Cn5ccnc5)cc4-c4cn(C)nc4C(F)(F)F)C3=O)c2c1", "note": "[Example 20, 7-((1H-Imidazol-1-yl)methyl)-2-(6-ethyl-8-methoxyquinolin-4-yl)-5-(1-methyl-3-(trifluoromethyl)-1H-pyrazol-4-yl)-3,4-dihydroisoquinolin-1(2H)-one]", "values": [{"measurement": "Ki", "setting": "WDR5", "value": "< 0.02", "unit": "nM"}, {"measurement": "GI50", "setting": "[1]", "value": "< 20", "unit": "nM"}]}
{"smiles": "COc1ccc2c(c1)C(N1CCc3c(cc(Cn4ccnc4)cc3-c3cn(C)nc3C(F)(F)F)C1=O)CCO2", "note": "(stereo not shown) [Example 67, 7-((1H-Imidazol-1-yl)methyl)-2-(6-methoxychroman-4-yl)-5-(1-methyl-3-(trifluoromethyl)-1H-pyrazol-4-yl)-3,4-dihydroisoquinolin-1(2H)-one]", "values": [{"measurement": "Ki", "setting": "WDR5", "value": 0.062, "unit": "nM"}, {"measurement": "GI50", "setting": "[1]", "value": 35, "unit": "nM"}]}
{"smiles": "Cc1ccc2nccc(N3CCc4c(cc(Cn5ccnc5)cc4-c4cn(C)nc4C(F)(F)F)C3=O)c2c1", "note": "[Example 15, 7-((1H-Imidazol-1-yl)methyl)-5-(1-methyl-3-(trifluoromethyl)-1H-pyrazol-4-yl)-2-(6-methylquinolin-4-yl)-3,4-dihydroisoquinolin-1(2H)-one]", "values": [{"measurement": "Ki", "setting": "WDR5", "value": 0.026, "unit": "nM"}, {"measurement": "GI50", "setting": "[1]", "value": 64, "unit": "nM"}]}
{"smiles": "COc1cc2c(N3CCc4c(cc(Cn5ccnc5C)cc4-c4cn(C)nc4C(F)(F)F)C3=O)ccnc2cc1C", "note": "[Example 6, 2-(6-Methoxy-7-methylquinolin-4-yl)-7-((2-methyl-1H-imidazol-1-yl)methyl)-5-(1-methyl-3-(trifluoromethyl)-1H-pyrazol-4-yl)-3,4-dihydroisoquinolin-1(2H)-one]", "values": [{"measurement": "Ki", "setting": "WDR5", "value": 0.024, "unit": "nM"}, {"measurement": "GI50", "setting": "[1]", "value": 32, "unit": "nM"}]}
{"smiles": "Cc1nccn1Cc1cc2c(c(-c3cn(C)nc3C(F)(F)F)c1)CCN(C1COc3ccccc31)C2=O", "note": "(stereo not shown) [Example 77, 2-(2,3-Dihydrobenzofuran-3-yl)-7-((2-methyl-1H-imidazol-1-yl)methyl)-5-(1-methyl-3-(trifluoromethyl)-1H-pyrazol-4-yl)-3,4-dihydroisoquinolin-1(2H)-one]", "values": [{"measurement": "Ki", "setting": "WDR5", "value": "< 0.02", "unit": "nM"}, {"measurement": "GI50", "setting": "[1]", "value": 583, "unit": "nM"}]}
{"smiles": "CCc1cc(C#N)c2nccc(N3CCc4c(cc(Cn5ccnc5)cc4-c4cn(C)nc4C(F)(F)F)C3=O)c2c1", "note": "[Example 204, 4-(7-((1H-Imidazol-1-yl)methyl)-5-(1-methyl-3-(trifluoromethyl)-1H-pyrazol-4-yl)-1-oxo-3,4-dihydroisoquinolin-2(1H)-yl)-6-ethylquinoline-8-carbonitrile]", "values": [{"measurement": "Ki", "setting": "WDR5", "value": "< 0.02", "unit": "nM"}, {"measurement": "GI50", "setting": "[1]", "value": 22, "unit": "nM"}]}
{"smiles": "COc1cc(C(=N)NO)c2nc(C)cc(N3CCc4c(cc(Cn5ccnc5)cc4-c4cn(C)nc4C(F)(F)F)C3=O)c2c1", "note": "[Example 184, 4-(7-((1H-Imidazol-1-yl)methyl)-5-(1-methyl-3-(trifluoromethyl)-1H-pyrazol-4-yl)-1-oxo-3,4-dihydroisoquinolin-2(1H)-yl)-N-hydroxy-6-methoxy-2-methylquinoline-8-carboximidamide]", "values": [{"measurement": "Ki", "setting": "WDR5", "value": "< 0.02", "unit": "nM"}, {"measurement": "GI50", "setting": "[1]", "value": 21, "unit": "nM"}]}
{"smiles": "COc1ccc2c(c1)c(N1CCc3c(cc(Cn4ccnc4C)cc3-c3cn(C)nc3C(F)(F)F)C1=O)c(C)n2C", "note": "[Example 80, 2-(5-Methoxy-1,2-dimethyl-1H-indol-3-yl)-7-((2-methyl-1H-imidazol-1-yl)methyl)-5-(1-methyl-3-(trifluoromethyl)-1H-pyrazol-4-yl)-3,4-dihydroisoquinolin-1(2H)-one]", "values": [{"measurement": "Ki", "setting": "WDR5", "value": 0.029, "unit": "nM"}, {"measurement": "GI50", "setting": "[1]", "value": 61, "unit": "nM"}]}
{"smiles": "CCc1cc(C(=O)NCc2cnccn2)c2nccc(N3CCc4c(cc(Cn5ccnc5)cc4-c4cn(C)nc4C(F)(F)F)C3=O)c2c1", "note": "[Example 173, 4-(7-((1H-Imidazol-1-yl)methyl)-5-(1-methyl-3-(trifluoromethyl)-1H-pyrazol-4-yl)-1-oxo-3,4-dihydroisoquinolin-2(1H)-yl)-6-ethyl-N-(pyrazin-2-ylmethyl)quinoline-8-carboxamide]", "values": [{"measurement": "Ki", "setting": "WDR5", "value": "< 0.02", "unit": "nM"}, {"measurement": "GI50", "setting": "[1]", "value": "< 20", "unit": "nM"}]}
{"smiles": "Cc1cc(OCCN(C)C)c2cncc(N3CCc4c(cc(Cn5ccnc5)cc4-c4cn(C)nc4C(F)(F)F)C3=O)c2c1", "note": "[Example 106, 7-((1H-Imidazol-1-yl)methyl)-8′-(2-(dimethylamino)ethoxy)-6′-methyl-5-(1-methyl-3-(trifluoromethyl)-1H-pyrazol-4-yl)-3,4-dihydro-1H-[2,4′-biisoquinolin]-1-one]", "values": [{"measurement": "Ki", "setting": "WDR5", "value": 0.045, "unit": "nM"}, {"measurement": "GI50", "setting": "[1]", "value": "< 20", "unit": "nM"}]}
{"smiles": "Cc1nccn1Cc1cc2c(c(-c3cn(C)nc3C(F)(F)F)c1)CCN(c1ccnc3cc(Cl)ccc13)C2=O", "note": "[Example 2, 2-(7-Chloroquinolin-4-yl)-7-((2-methyl-1H-imidazol-1-yl)methyl)-5-(1-methyl-3-(trifluoromethyl)-1H-pyrazol-4-yl)-3,4-dihydroisoquinolin-1(2H)-one]", "values": [{"measurement": "Ki", "setting": "WDR5", "value": 0.05, "unit": "nM"}, {"measurement": "GI50", "setting": "[1]", "value": 189, "unit": "nM"}]}
{"smiles": "COc1cc(CN2CCCC2)c2nccc(N3CCc4c(cc(Cn5ccnc5)cc4-c4cn(C)nc4C(F)(F)F)C3=O)c2c1", "note": "[Example 138, 7-((1H-Imidazol-1-yl)methyl)-2-(6-methoxy-8-(pyrrolidin-1-ylmethyl)quinolin-4-yl)-5-(1-methyl-3-(trifluoromethyl)-1H-pyrazol-4-yl)-3,4-dihydroisoquinolin-1(2H)-one]", "values": [{"measurement": "Ki", "setting": "WDR5", "value": "< 0.02", "unit": "nM"}, {"measurement": "GI50", "setting": "[1]", "value": "< 20", "unit": "nM"}]}
{"smiles": "CCc1cc(CCC(=O)N2CCOCC2)c2nc(C)cc(N3CCc4c(cc(Cn5ccnc5)cc4-c4cn(C)nc4C(F)(F)F)C3=O)c2c1", "note": "[Example 153, 7-((1H-Imidazol-1-yl)methyl)-2-(6-ethyl-2-methyl-8-(3-morpholino-3-oxopropyl)quinolin-4-yl)-5-(1b-methyl-3-(trifluoromethyl)-1H-pyrazol-4-yl)-3,4-dihydroisoquinolin-1(2H)-one]", "values": [{"measurement": "Ki", "setting": "WDR5", "value": 0.022, "unit": "nM"}, {"measurement": "GI50", "setting": "[1]", "value": 47, "unit": "nM"}]}
{"smiles": "Cc1cc(Cl)c2cncc(N3CCc4c(cc(Cn5ccnc5)cc4-c4cn(C)nc4C(F)(F)F)C3=O)c2c1", "note": "[Example 24, 7-((1H-Imidazol-1-yl)methyl)-8′-chloro-6′-methyl-5-(1-methyl-3-(trifluoromethyl)-1H-pyrazol-4-yl)-3,4-dihydro-1H-[2,4′-biisoquinolin]-1-one]", "values": [{"measurement": "Ki", "setting": "WDR5", "value": 0.026, "unit": "nM"}, {"measurement": "GI50", "setting": "[1]", "value": 92, "unit": "nM"}]}
{"smiles": "CCOC(=O)c1cc(OC)cc2c(N3CCc4c(cc(Cn5ccnc5)cc4-c4cn(C)nc4C(F)(F)F)C3=O)cc(C)nc12", "note": "[Example 95, Ethyl 4-(7-((1H-imidazol-1-yl)methyl)-5-(1-methyl-3-(trifluoromethyl)-1H-pyrazol-4-yl)-1-oxo-3,4-dihydroisoquinolin-2(1H)-yl)-6-methoxy-2-methylquinoline-8-carboxylate]", "values": [{"measurement": "Ki", "setting": "WDR5", "value": "< 0.02", "unit": "nM"}, {"measurement": "GI50", "setting": "[1]", "value": 23, "unit": "nM"}]}
{"smiles": "CCc1cc(N2CCN(C3COC3)CC2)c2nc(C)cc(N3CCc4c(cc(Cn5ccnc5)cc4-c4cn(C)nc4C(F)(F)F)C3=O)c2c1", "note": "[Example 132, 7-((1H-Imidazol-1-yl)methyl)-2-(6-ethyl-2-methyl-8-(4-(oxetan-3-yl)piperazin-1-yl)quinolin-4-yl)-5-(1-methyl-3-(trifluoromethyl)-1H-pyrazol-4-yl)-3,4-dihydroisoquinolin-1(2H)-one]", "values": [{"measurement": "Ki", "setting": "WDR5", "value": 0.03, "unit": "nM"}, {"measurement": "GI50", "setting": "[1]", "value": "< 20", "unit": "nM"}]}
{"smiles": "CCc1cc(OCCOC)c2nccc(N3CCc4c(cc(Cn5ccnc5)cc4-c4cn(C)nc4C(F)(F)F)C3=O)c2c1", "note": "[Example 140, 7-((1H-Imidazol-1-yl)methyl)-2-(6-ethyl-8-(2-methoxyethoxy)quinolin-4-yl)-5-(1-methyl-3-(trifluoromethyl)-1H-pyrazol-4-yl)-3,4-dihydroisoquinolin-1(2H)-one]", "values": [{"measurement": "Ki", "setting": "WDR5", "value": "< 0.02", "unit": "nM"}, {"measurement": "GI50", "setting": "[1]", "value": "< 20", "unit": "nM"}]}
{"smiles": "Cc1nccn1Cc1cc2c(c(-c3cn(C)nc3C(F)(F)F)c1)CCN([C@H]1CCc3ccccc31)C2=O", "note": "[Example 76, (S)-2-(2,3-Dihydro-1H-inden-1-yl)-7-((2-methyl-1H-imidazol-1-yl)methyl)-5-(1-methyl-3-(trifluoromethyl)-1H-pyrazol-4-yl)-3,4-dihydroisoquinolin-1(2H)-one]", "values": [{"measurement": "Ki", "setting": "WDR5", "value": "< 0.02", "unit": "nM"}, {"measurement": "GI50", "setting": "[1]", "value": 613, "unit": "nM"}]}
{"smiles": "Cc1ccc2cncc(N3CCc4c(cc(Cc5cn(C)cn5)cc4-c4cn(C)nc4C(F)(F)F)C3=O)c2c1", "note": "[Example 58, 6′-Methyl-7-((1-methyl-1H-imidazol-4-yl)methyl)-5-(1-methyl-3-(trifluoromethyl)-1H-pyrazol-4-yl)-3,4-dihydro-1H-[2,4′-biisoquinolin]-1-one]", "values": [{"measurement": "Ki", "setting": "WDR5", "value": 0.025, "unit": "nM"}, {"measurement": "GI50", "setting": "[1]", "value": 191, "unit": "nM"}]}
{"smiles": "COc1ccc2nc(C)cc(N3CCc4c(cc(Cn5ccnc5[N+](=O)[O-])cc4-c4cn(C)nc4C(F)(F)F)C3=O)c2c1", "note": "[Example 118, 2-(6-Methoxy-2-methylquinolin-4-yl)-5-(1-methyl-3-(trifluoromethyl)-1H-pyrazol-4-yl)-7-((2-nitro-1H-imidazol-1-yl)methyl)-3,4-dihydroisoquinolin-1(2)-one]", "values": [{"measurement": "Ki", "setting": "WDR5", "value": "> 33000", "unit": "nM"}, {"measurement": "GI50", "setting": "[1]", "value": 3970, "unit": "nM"}]}
